Test results reported in ChEMBL document CHEMBL1201862, “PubChem BioAssay data set” (2004).
The source made the active and inactive calls.

Assays:
[1] = target: Heat shock protein HSP 90-alpha (Homo sapiens, UniProt P07900); format: functional, organism-based
[2] = target: T1, Calpain-2 catalytic subunit (Sus scrofa, UniProt P43367); test: m-calpain protease blockers, concentration series – biochemical, fluorogenic peptide substrate, dose response (AID 1420); format: functional
T1 sequence (P43367 whole entry): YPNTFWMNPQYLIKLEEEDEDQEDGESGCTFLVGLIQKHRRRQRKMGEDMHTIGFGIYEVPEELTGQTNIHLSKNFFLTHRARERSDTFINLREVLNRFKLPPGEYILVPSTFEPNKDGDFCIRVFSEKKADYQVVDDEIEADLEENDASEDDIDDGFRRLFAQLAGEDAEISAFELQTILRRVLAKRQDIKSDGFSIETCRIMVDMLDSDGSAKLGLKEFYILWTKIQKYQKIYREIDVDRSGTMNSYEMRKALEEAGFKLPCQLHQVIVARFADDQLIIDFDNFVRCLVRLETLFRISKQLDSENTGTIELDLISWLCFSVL

[3] = target: Beta-galactosidase (Escherichia coli, UniProt Q8VNN2); test: Dose response counterscreen for EBI2 assay utilizing the enzyme, b-galactosidase.; format: functional
[4] = NIH-3T3 fibroblast cytotoxicity, dose response, cytotoxicity control, cell-based, fluorescence, Alamar Blue, secondary assay (AID 2327); format: functional;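 further: NIH-3T3 mouse fibroblasts cultured with fluconazole at 8 µg/mL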
[5] = fluconazole-exposed Candida albicans growth modulators – fluorescence, retest, confirmation (AID 2467); format: functional, cell-based
[6] = target: Nonstructural protein 1 (Influenza A virus, UniProt Q194T2); format: functional, Influenza A virus (A/California/07/2009(H1N1))
[7] = target: Paired box protein Pax-8 (Homo sapiens, UniProt Q06710); test: PAX8 transcriptional activity inhibition in RMG-I – RMG-I cells, luciferase, cherry-pick, dose response (AID 687027); format: functional, cell-based;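 further: luciferase reporter driven by Pax8 target thyroperoxidase promoter measured by SteadyGlo luminescence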
[8] = Luminescence Cell-Based Dose Retest to Confirm Inhibitors of Cancer Stem Cells. [Related pubchem assays (depositor defined):AID2717, AID2721]; format: functional; details: Homo sapiens
[9] = Trypanosoma cruzi growth suppression in host cells – NIH3T3 host cells, beta-gal luminescence, confirmation (AID 2044); format: functional, cell-based;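 further: intracellular parasites grown in NIH/3T3 mouse fibroblasts as host cells; luminescent beta-galactosidase reporter signal from transgenic T. cruzi replicating inside host cells; inhibitors lower the luminescence signal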
[10] = cells; format: functional, cell-based
[11] = test system: INS1; test: INS-1E survival protection against cytokine death – cell-based, luminescence, retest, dose response (AID 449756); format: functional; details: Rattus norvegicus;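 further: cell death triggered by IL-1 beta plus TNF-alpha plus IFN-gamma mixture; protective hits raise ATP signal compared with cytokine alone wells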
[12] = cells; format: functional, cell-based; remark: listed apart in the source
[13] = NIH3T3 cell viability loss – ATP luminescence, mouse fibroblasts, counter-screen, dose response (AID 2010); format: functional, cell-based;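 further: cells exposed to compound for about 90 hours before reading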
[14] = target: T2, Replicative DNA helicase DnaB (Mycobacterium tuberculosis, UniProt P9WMR3); test: DnaB intein splicing inhibitors, dose response, biochemical, cell-free fluorescence (AID 449749); format: functional
T2 sequence (P9WMR3 whole entry): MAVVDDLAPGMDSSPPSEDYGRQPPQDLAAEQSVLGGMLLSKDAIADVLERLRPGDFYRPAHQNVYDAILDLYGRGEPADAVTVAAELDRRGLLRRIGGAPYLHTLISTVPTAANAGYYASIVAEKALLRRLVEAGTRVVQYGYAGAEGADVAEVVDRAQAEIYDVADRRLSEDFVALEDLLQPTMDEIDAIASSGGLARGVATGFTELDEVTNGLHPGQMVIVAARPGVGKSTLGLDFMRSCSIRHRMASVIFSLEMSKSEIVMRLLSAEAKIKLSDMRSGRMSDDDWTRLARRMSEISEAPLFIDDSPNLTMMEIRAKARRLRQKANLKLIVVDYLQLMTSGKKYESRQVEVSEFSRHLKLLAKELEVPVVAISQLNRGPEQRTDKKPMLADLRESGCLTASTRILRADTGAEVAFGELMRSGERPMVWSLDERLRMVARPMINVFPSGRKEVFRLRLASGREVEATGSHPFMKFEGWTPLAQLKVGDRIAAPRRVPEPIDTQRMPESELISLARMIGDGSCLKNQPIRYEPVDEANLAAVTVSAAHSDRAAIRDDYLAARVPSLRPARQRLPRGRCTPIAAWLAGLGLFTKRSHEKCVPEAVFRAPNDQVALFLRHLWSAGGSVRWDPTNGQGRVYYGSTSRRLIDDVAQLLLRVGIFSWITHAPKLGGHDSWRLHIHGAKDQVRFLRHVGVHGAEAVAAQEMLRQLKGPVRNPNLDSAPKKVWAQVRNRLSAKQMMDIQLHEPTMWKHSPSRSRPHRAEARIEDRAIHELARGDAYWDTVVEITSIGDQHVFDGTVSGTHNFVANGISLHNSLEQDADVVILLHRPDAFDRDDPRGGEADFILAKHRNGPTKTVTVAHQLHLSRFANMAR

[15] = target: T3, Protein RecA (Mycobacterium tuberculosis, UniProt P9WHJ3); test: Fluorescence Cell-Free Homogeneous Dose Retest to Identify Inhibitors of RecA-Intein Splicing Activity. [Related pubchem assays (depositor defined):AID2097, AID2223, AID489010, AID492950]; format: functional
T3 sequence (P9WHJ3 whole entry): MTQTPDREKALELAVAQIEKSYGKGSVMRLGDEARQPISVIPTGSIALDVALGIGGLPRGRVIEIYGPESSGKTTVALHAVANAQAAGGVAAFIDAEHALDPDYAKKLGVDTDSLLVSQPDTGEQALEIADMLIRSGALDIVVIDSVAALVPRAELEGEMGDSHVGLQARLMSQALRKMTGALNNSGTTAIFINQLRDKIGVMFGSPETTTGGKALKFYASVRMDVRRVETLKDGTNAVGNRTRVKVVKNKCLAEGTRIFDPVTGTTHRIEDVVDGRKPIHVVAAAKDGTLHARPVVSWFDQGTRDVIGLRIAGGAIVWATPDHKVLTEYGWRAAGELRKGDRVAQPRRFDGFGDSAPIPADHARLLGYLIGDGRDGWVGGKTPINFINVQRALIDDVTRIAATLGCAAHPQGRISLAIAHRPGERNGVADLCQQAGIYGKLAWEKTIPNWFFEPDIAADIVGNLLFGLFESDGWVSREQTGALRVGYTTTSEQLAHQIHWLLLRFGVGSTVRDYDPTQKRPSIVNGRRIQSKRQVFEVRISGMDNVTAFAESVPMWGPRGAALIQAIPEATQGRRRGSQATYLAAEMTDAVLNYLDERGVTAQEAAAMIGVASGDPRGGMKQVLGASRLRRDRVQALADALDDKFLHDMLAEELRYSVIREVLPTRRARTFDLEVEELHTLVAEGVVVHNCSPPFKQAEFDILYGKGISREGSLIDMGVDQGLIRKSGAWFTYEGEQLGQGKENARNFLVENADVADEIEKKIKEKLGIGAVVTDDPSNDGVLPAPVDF

[16] = alpha-synuclein stem-loop luciferase translation blockers – H4 neuroglioma cells, luminescence, confirmation (AID 1988); format: functional, cell-based
[17] = non-specific 3'UTR reporter inhibition in Clone20-Shn3RL – cell-based, Renilla luciferase, cherry-picked, counter-screen for Shn3 inhibitor project, dose response (AID 624133); format: functional
[18] = Luminescence Cell-Based Dose Response HTS to Identify Inhibitors of 5'UTR Stem-Loop Driven Prion Protein mRNA Translation in H4 Neuroglioblastoma Cells. [Related pubchem assays: 1827 (Project Summary), 1813 (Primary HTS)]; format: functional
[19] = luciferase reporter signal suppression in cells – H4 neuroglioma cells, luminescence, dose response (AID 1990); format: functional, cell-based
[20] = reduction of Shn3 3'UTR-driven luciferase in osteoblasts – cell-based, Clone20 osteoblasts, firefly luciferase, cherry-picked, dose response (AID 624132); format: functional;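 further: firefly luciferase luminescence from reporter carrying the Shn3 3'UTR in osteoblasts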
[21] = loss of viability in HepG2 cells – cell-based, CellTiter-Glo, cherry-picked, cytotoxicity control for Shn3 inhibitor project, dose response (AID 624134); format: functional

Sequence of Beta-galactosidase (Q8VNN2 whole entry): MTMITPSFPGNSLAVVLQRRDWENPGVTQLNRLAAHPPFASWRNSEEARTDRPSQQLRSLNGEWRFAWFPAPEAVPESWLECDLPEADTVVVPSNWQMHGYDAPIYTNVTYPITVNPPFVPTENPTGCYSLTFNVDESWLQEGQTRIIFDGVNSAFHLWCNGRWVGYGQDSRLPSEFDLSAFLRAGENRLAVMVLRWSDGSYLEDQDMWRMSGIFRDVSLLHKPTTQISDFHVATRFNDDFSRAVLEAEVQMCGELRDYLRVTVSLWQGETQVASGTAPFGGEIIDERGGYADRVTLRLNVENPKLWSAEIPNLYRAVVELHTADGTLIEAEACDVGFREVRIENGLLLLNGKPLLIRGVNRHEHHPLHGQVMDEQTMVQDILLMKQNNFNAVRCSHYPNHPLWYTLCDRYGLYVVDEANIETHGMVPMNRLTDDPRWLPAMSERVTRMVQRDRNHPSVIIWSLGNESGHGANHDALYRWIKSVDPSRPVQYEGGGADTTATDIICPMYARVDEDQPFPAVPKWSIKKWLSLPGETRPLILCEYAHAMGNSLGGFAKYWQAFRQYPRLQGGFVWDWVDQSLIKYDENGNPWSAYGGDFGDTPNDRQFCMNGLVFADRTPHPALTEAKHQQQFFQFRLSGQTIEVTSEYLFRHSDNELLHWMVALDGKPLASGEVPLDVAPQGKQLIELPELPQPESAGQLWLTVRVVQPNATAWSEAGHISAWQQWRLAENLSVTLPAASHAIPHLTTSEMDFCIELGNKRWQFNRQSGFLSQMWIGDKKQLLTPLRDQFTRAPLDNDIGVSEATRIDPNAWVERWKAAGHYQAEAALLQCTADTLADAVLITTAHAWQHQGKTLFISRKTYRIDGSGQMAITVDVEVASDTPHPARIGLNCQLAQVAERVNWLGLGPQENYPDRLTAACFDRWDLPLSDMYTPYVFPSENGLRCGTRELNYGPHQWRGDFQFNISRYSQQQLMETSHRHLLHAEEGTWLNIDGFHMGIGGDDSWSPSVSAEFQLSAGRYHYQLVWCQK
Sequence of Nonstructural protein 1 (Q194T2 whole entry): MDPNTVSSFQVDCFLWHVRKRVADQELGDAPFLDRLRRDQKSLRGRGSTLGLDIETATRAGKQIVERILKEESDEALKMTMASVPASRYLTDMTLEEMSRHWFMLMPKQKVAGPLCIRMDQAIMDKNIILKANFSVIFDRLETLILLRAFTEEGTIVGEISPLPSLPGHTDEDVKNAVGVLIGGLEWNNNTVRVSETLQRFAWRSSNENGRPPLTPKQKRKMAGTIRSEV
Sequence of Paired box protein Pax-8 (Q06710 whole entry): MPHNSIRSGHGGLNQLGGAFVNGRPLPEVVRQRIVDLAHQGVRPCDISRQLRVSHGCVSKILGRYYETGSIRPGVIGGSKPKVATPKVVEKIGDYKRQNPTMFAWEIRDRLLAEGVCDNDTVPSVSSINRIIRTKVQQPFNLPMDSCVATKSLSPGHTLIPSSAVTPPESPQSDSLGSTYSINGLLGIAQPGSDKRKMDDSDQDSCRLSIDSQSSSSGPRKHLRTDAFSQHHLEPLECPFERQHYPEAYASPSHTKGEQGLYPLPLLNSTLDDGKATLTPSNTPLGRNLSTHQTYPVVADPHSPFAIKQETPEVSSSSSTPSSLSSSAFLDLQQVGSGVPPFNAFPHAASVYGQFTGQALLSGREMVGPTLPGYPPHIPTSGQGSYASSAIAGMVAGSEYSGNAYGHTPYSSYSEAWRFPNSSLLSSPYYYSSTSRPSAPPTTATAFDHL

## N#C/C(=C/c1ccc(O)cc1)C(=O)NCc1ccc(Cl)cc1
[1]
  AC50: 3.08 µM (active)

## NC(=O)C1CCN(C2CC(=O)N(c3ccc(F)c(Cl)c3)C2=O)CC1 (centres undefined)
[1]
  AC50: 3.04 µM (active)

## CCCC(=O)n1nc(NCc2ccc(OC)cc2)nc1NCc1ccc(OC)cc1
[2]
  IC50: < 0.4 µM (not active)

## COc1ccccc1N1CCN(C(=O)c2cc3c(C)nc4ccccc4c3o2)CC1
[3]
  IC50: > 80 µM (inactive)

## COc1ccc(OC)c(NC(=O)C(=O)/C=C(\O)c2cc(OC)ccc2OC)c1
[4]
  EC50: 29.9 µM (inconclusive)
[5]
  EC50: > 38 µM (not active)

## COc1ccc2c(n1)Sc1nc3ccccc3nc1N2
[1]
  AC50: 1.96 µM (active)

## CC(C)=CCc1c(O)ccc(C2COc3c(CC=C(C)C)c(O)cc(O)c3C2=O)c1O (centres undefined)
[1]
  AC50: 15.9 µM (active)

## CC(=NNC(=S)N1CCC1)c1ccccn1
[1]
  AC50: 1.58 µM (active)
[6]
  IC50: 2.09 µM (active)
[7]
  AC50: < 260 nM (active)

## Cc1ccc(S(=O)(=O)N(C(=O)c2ccncc2)c2ccc(OC(=O)c3ccncc3)cc2)cc1
[1]
  AC50: 1.23 µM (active)

## O=c1c2c3c(sc2ncn1/N=C/c1ccc([N+](=O)[O-])o1)CCCC3
[1]
  AC50: 0.637 µM (active)
[8]
  AC50: 4.45 µM (active)

## Cc1cccc(NC(=O)NCc2ccc3[nH]c(C)cc3c2)c1
[2]
  IC50: 7.26 µM (not active)

## O=C(COc1ccc(Cl)cc1)N1CCN(C(=O)c2cccc(F)c2)CC1
[3]
  IC50: > 80 µM (inactive)

## COCCNC(=O)CCCn1c(=O)c2cc(OC)c(OC)cc2n(CC(=O)NCCC2=CCCCC2)c1=O
[4]
  EC50: > 160 µM (inactive)
[5]
  EC50: 3.16 µM (active)

## O=S(=O)(Cc1ccc(Cl)cc1)N1CCN(Cc2ccccc2)CC1
[4]
  EC50: > 160 µM (inactive)
[5]
  EC50: > 38 µM (not active)

## Cc1nc2ccccc2nc1N/N=C/c1ccc(O)cc1O
[9]
  EC50: 2.05 µM (active)
[10]
  EC50: > 350 µM (not active)
[11]
  AC50: 882 nM (active)
[12]
  EC50: 12.1 µM (active)
[6]
  IC50: 14.1 µM (active)
[13]
  EC50: 8.31 µM (active)
[14]
  AC50: > 380 µM (inactive)
[15]
  EC50: > 380 µM (inconclusive)

## Cc1ccc2oc(=O)c3cnn(CC(=O)N(CCC(C)C)Cc4ccco4)c3c2c1
[3]
  IC50: > 80 µM (inactive)

## OCc1ccc(O)c2ncccc12
[4]
  EC50: > 150 µM (inactive)
[16]
  EC50: 1.2 µM (active)
[17]
  AC50: 2.24 µM (active)
[5]
  EC50: > 38 µM (not active)
[18]
  EC50: 2.95 µM (active)
[19]
  EC50: 712 nM (active)
[20]
  AC50: 1.66 µM (active)
[11]
  AC50: 3370 nM (active)
[21]
  AC50: 5.94 µM (active)
[6]
  IC50: 10.5 µM (active)
